From ChEMBL document CHEMBL5236569, “Emodin lows NPC1L1-mediated cholesterol absorption as an uncompetitive inhibitor” (2022)
The source made the active and inactive calls. The calls are words filed in the database; no cut-off is given here.

Tests used:
[1] = target: T1, NPC1-like intracellular cholesterol transporter 1 (Homo sapiens) (UniProt Q9UHC9); test: Inhibition of NPC1L1in human HepG2 cells assessed as increase in intracellular cholesterol content incubated for 60 mins by filipin dye based confocal microscopy analysis; assay type: cell-based
T1 sequence (whole entry): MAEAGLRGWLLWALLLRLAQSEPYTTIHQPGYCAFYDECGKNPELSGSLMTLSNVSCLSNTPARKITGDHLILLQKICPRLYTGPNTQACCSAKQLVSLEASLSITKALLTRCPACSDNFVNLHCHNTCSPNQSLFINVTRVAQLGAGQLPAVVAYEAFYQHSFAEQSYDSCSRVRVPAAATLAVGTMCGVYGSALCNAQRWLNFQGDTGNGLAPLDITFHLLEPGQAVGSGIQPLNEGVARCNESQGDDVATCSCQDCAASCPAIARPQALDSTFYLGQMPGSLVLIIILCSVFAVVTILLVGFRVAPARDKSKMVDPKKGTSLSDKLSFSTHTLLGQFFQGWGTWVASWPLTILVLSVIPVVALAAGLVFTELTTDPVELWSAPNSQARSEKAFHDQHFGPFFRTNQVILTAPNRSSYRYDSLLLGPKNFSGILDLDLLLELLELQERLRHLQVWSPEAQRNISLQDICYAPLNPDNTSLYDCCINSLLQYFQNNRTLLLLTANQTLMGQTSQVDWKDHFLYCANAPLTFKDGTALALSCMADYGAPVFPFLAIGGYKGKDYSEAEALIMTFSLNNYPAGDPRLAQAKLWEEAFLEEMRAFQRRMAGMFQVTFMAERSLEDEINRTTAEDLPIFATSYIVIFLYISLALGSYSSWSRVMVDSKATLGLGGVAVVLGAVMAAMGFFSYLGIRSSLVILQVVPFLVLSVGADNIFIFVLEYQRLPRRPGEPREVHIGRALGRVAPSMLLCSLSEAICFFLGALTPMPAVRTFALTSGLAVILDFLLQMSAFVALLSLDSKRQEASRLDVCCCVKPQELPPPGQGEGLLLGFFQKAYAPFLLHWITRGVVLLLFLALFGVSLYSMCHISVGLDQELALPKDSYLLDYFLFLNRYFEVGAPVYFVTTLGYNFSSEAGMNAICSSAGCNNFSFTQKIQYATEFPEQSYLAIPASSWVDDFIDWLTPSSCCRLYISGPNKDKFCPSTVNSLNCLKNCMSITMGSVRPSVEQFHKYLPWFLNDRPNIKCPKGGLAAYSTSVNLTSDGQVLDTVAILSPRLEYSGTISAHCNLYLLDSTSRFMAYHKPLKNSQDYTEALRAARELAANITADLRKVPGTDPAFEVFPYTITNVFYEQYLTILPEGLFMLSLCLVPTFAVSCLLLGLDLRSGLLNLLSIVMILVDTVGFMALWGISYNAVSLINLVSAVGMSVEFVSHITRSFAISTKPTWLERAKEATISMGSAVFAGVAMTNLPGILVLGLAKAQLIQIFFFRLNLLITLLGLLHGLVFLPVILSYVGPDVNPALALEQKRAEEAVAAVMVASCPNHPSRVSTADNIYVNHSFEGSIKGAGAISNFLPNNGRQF

[2] = Inhibition of cholesterol uptake in human HepG2 cells at 100 uM relative to control; assay type: functional
[3] = Inhibition of cholesterol uptake in human Caco-2 cells at 100 uM relative to control; assay type: functional
[4] = target: T1, NPC1-like intracellular cholesterol transporter 1 (Homo sapiens); test: Inhibition of NPC1L1in human HepG2 cells assessed as reduction in intracellular cholesterol content incubated for 60 mins by filipin dye based confocal microscopy analysis; assay type: cell-based
[5] = Inhibition of cholesterol uptake in human HepG2 cells at 75 uM relative to control; assay type: functional
[6] = Inhibition of cholesterol uptake in human HepG2 cells at 50 uM relative to control; assay type: functional
[7] = test system: HepG2; test: Effect on NPC1L1 expression in human HepG2 cells at 1 to 100 uM incubated for 24 hrs; assay type: functional, cell-based; conditions: dose 1-100 µM
[8] = target: T1, NPC1-like intracellular cholesterol transporter 1 (Homo sapiens); test: […] inhibition of NPC1L1 (unknown origin) assessed as decrease in Vmax at upto 150 uM by Lineweaver-burk double inverse plot analysis
[9] = Inhibition of cholesterol uptake in human Caco-2 cells at 12.5 uM relative to control; assay type: functional
[10] = Inhibition of cholesterol uptake in human HepG2 cells at 25 uM relative to control; assay type: functional
[11] = Inhibition of cholesterol uptake in human Caco-2 cells at 50 uM relative to control; assay type: functional
[12] = Inhibition of cholesterol uptake in human Caco-2 cells at 25 uM relative to control; assay type: functional
[13] = Inhibition of cholesterol uptake in human HepG2 cells at 12.5 uM relative to control; assay type: functional
[14] = Inhibition of cholesterol uptake in human Caco-2 cells at 75 uM relative to control; assay type: functional
[15] = target: T1, NPC1-like intracellular cholesterol transporter 1 (Homo sapiens); test: […] inhibition of NPC1L1 (unknown origin) assessed as decrease in Km at upto 150 uM by Lineweaver-burk double inverse plot analysis

SMILES | Activity [1] | inhibition at 100 µM [2] [%] | inhibition at 100 µM [3] [%] | Activity [4] | inhibition at 75 µM [5] [%] | inhibition at 50 µM [6] [%] | Activity [7] | Activity [8] | inhibition at 12.5 µM [9] [%] | inhibition at 25 µM [10] [%] | inhibition at 50 µM [11] [%] | inhibition at 25 µM [12] [%] | inhibition at 12.5 µM [13] [%] | inhibition at 75 µM [14] [%] | Activity [15]
O=C1[C@H](CC[C@H](O)c2ccc(F)cc2)[C@@H](c2ccc(O)cc2)N1c1ccc(F)cc1 [EZETIMIBE] | Active | 48.3 | 70 | inactive |  |  |  |  |  |  |  |  |  |  | 
Cc1cc(O)c2c(c1)C(=O)c1cc(O)cc(O)c1C2=O [EMODIN] | Active | 27 | 29 | Active | 31.3 | 33.6 | Active | Active | 44.3 | 41.6 | 32.3 | 39.6 | 52.6 | 28 | Active
